The results in this text go back to publication PMC4825926, “FleA Expression in Aspergillus fumigatus Is Recognized by Fucosylated Structures on Mucins and Macrophages to Prevent Lung Infection” (PLoS Pathogens, 2016).

The IC50 is the concentration that inhibits the measured activity by half. A low value points to inhibition by little substance.

Where two headings read alike, the source gives them in different places.

In experiment [1] the target is T1, FleA (AFL, Aspergillus fumigatus lectin) (Aspergillus fumigatus, UniProt Q4WW81).
T1 construct: about 34 kDa; no canonical signal peptide
Kind of experiment: competition plate assay: biotinylated FleA binding to immobilised human airway mucin.

A further experiment concerns the target T2, PA-IIL (PAIIL) (Pseudomonas aeruginosa, UniProt Q9HYN5).
T2 construct: gene lecB
Description: competition assay: PA-IIL binding to human airway mucin.

In experiment [2] the target is T1, FleA (AFL, Aspergillus fumigatus lectin). Kind of experiment: competition plate assay: biotinylated FleA binding to immobilised human airway mucin. As to conditions: 10 mM CaCl2, TBS-Tween; 100 mM L-galactose.

T1 sequence (Q4WW81 whole entry): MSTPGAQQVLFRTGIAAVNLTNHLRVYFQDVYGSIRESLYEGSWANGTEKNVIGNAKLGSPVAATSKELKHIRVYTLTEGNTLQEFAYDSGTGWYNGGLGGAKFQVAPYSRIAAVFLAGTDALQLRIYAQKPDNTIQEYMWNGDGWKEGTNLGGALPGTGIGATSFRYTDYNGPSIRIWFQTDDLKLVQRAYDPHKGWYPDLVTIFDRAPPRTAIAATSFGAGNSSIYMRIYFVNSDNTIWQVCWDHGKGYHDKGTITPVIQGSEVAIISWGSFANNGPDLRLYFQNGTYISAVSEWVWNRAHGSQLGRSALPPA
T2 sequence (Q9HYN5 entry or part of it): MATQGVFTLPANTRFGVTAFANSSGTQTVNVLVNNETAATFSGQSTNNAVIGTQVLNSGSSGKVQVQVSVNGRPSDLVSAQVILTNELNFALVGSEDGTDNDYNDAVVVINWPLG

For the compound `CCC/C=C/CO[C@H]1O[C@H](CO)[C@H](O)[C@H](O)[C@H]1O` [(2E)-hexenyl α-D-galactopyranoside], the IC50 in experiment [1] is 15300 µM.

On to `CCC/C=C/CO[C@@H]1O[C@@H](C)[C@@H](O)[C@@H](O)[C@@H]1O` [(2E)-hexenyl α-L-fucopyranoside], for which the IC50 on PA-IIL (PAIIL) came out at 1.6 µM; in experiment [1], 0.012 µM.

With `CCCCC/C=C/CO[C@@H]1O[C@@H](C)[C@@H](O)[C@@H](O)[C@@H]1O` [(2E)-octenyl α-L-fucopyranoside], the IC50 in experiment [1] came to 2100 µM.

In experiment [1] (10 mM CaCl2, TBS-Tween, inhibition of FleA-mucin binding), `C[C@@H]1OC(O)[C@@H](O)[C@H](O)[C@@H]1O` (stereo partly drawn) [L-fucose] had an IC50 of 801 µM.

For the compound `OC[C@@H]1OC(O)[C@@H](O)[C@H](O)[C@@H]1O` (stereo partly drawn) [L-galactose], the “inhibition at 100 mM” value in experiment [2] is “No inhibition was observed with galactose (Fig 1A)”.

Compound `C=CCO[C@@H]1O[C@@H](C)[C@@H](O)[C@@H](O)[C@@H]1O` [allyl α-L-fucopyranoside] had an IC50 in experiment [1] of 264 µM.

On to `CCCCCCO[C@@H]1O[C@@H](C)[C@@H](O)[C@@H](O)[C@@H]1O` [hexyl α-L-fucopyranoside], for which, in experiment [1], the IC50 worked out at 361 µM.

Consider `CO[C@@H]1O[C@@H](C)[C@@H](O)[C@@H](O)[C@@H]1O` [methyl α-L-fucopyranoside], for which, in experiment [1], the IC50 stood at 450 µM.
